According to US11076597B2, “High stress resistant plant growth regulator and preparation method and use thereof” (SHANGHAI INSTITUTES FOR BIOLOGICAL SCIENCES, CHINESE …, priority 2015, dated 2021):
“Also recorded” adds a separate entry of the source.

Assays:
[1] = target: T1, PYL2 receptor-HAB1 complex (Arabidopsis thaliana, UniProt O80992); test: HAB1 phosphatase activity assay (SnRK2.6 phosphorylated polypeptide as substrate); type: biochemical; conditions: FIG. 1a-1g; 100 nM HAB1, 500 nM PYL2
T1 construct: made in house; host or cells: E. coli BL21 (DE3)
T1 sequence (O80992 14-188): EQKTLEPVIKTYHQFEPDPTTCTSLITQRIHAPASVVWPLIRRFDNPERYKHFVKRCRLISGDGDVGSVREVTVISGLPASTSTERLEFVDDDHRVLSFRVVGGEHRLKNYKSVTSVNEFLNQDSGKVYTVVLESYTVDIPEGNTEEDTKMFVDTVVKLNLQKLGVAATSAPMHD
T1 sequence (Q9CAJ0 172-511 partner limits assumed): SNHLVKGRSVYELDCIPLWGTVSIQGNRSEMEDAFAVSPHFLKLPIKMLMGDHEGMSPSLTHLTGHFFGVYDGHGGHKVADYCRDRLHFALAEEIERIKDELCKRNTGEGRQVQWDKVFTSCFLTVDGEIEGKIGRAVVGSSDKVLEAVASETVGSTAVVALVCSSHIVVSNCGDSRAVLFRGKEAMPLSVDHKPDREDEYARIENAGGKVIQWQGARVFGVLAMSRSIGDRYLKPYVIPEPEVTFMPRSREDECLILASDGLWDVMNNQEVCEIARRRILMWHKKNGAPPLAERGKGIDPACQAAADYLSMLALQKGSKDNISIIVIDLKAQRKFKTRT
Experimental: 50 mM imidazole, pH 7.2, 5 mM MgCl2, 0.1% β-mercaptoethanol, 0.5 μg·ml^−1 BSA, 100 nM HAB1 protein with a Biotin tag sequence, 500 nM PYL2 receptor protein with 6×His-SUMO dual tag sequence and the corresponding concentration of (+)-ABA/0224/0304/0706/0708/0713/0715/1028c/0428/1022B/NC0F4 were contained in the reaction system. The reaction system was incubated at room temperature for 30 minutes, followed by a further reaction for 30 minutes after adding an 11-amino acid phosphorylated polypeptide as a substrate. The phosphorylated polypeptide is amino acid 170-180 of SnRK2.6 protein kinase, wherein phosphorylated serine at position 175 (with a sequence of HSQPKpSTVGTP, purchased from Kingsley Company) was a known HAB1 dephosphorylation target site. After 30 minutes, chromogenic reagent (purchased from BioVision) was added and the absorbance at 650 nm was read on a microplate reader (Molecular Devices).

[2] = target: T2, PYL1 receptor-HAB1 protein phosphatase complex (Arabidopsis thaliana, UniProt Q8VZS8); test: AlphaScreen assay, PYL1 receptor binding to HAB1; type: biochemical; conditions: fraction of the EC50 of ABA; FIG. 2b
T2 construct: made in house; host or cells: E. coli BL21 (DE3)
T2 sequence (Q8VZS8 36-211): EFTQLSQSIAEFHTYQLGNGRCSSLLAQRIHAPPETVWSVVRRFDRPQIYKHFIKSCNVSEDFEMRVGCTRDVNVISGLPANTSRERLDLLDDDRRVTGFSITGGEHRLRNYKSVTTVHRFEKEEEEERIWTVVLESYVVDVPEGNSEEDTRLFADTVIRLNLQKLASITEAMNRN
T2 sequence (Q9CAJ0 172-511 partner limits assumed): T1 sequence (Q9CAJ0 172-511 partner limits assumed)
Experimental: (§1) The AlphaScreen kit (available from Perkin Elmer) was used, and the method was as follows: a 10× buffer (50 mM MOPS, pH 7.4, 50 mM NaF, 50 mM CHAPS, 0.1 mg/ml bovine serum albumin) diluted at 1:10, each of 100 nM HAB1 with Biotin tag sequence and PYR1/PYL1/PYL2/PYL7/GmPYL6/OsPYL2 protein with dual tags of 6×His and SUMO sequences, corresponding concentrations of (+)-ABA/0224/0304/0706/0708/0713/0715/0428/NC0F4, and 5 μg/ml donor beads and acceptor beads (available from Perkin Elmer) were contained in 150 μl of experimental system. After incubating for 1.5 hours at room temperature in the dark, it was placed into an Envision Plate Reader (available from Perkin Elmer) under the programmed AlphaScreen procedure for readings.
(§2) AlphaScreen technology was used to test the ability of the compounds of the present invention to promote PYL receptor binding to PP2C protein phosphatase (HAB1).

[3] = target: T3, PYL7 receptor-HAB1 protein phosphatase complex (Arabidopsis thaliana, UniProt Q1ECF1); test: AlphaScreen assay, PYL7 receptor binding to HAB1; type: biochemical; parameters: unit not given beside the values; conditions: fraction of the EC50 of ABA; FIG. 2d
T3 construct: made in house; host or cells: E. coli BL21 (DE3)
T3 sequence (Q1ECF1 1-211): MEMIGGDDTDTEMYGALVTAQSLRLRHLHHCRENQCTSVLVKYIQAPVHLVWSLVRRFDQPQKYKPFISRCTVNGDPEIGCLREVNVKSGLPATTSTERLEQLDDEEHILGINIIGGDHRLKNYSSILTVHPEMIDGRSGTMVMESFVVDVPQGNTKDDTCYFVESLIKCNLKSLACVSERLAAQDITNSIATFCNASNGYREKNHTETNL
T3 sequence (Q9CAJ0 172-511 partner limits assumed): T1 sequence (Q9CAJ0 172-511 partner limits assumed)
Experimental: as §1, §2

[4] = system: Arabidopsis thaliana Col-0 ecotype; test: Soil drought experiment, Arabidopsis; type: in vivo; conditions: for survival/growth after drought: 5 μM sprayed once every week, twice in total, four weeks of drought, FIG. 7; for growth after drought: 5 μM spray, two weeks after the drought, FIG. 12
Experimental: Seeds of Arabidopsis Col-0 ecotype were sterilized with NaClO and then sown on ½ MS solid medium at 4° C. for 3 days of vernalization. After 6 days of growing, the well-grown seedlings having uniform size were selected and transferred into 8×7×6 cm^3 pots. Each pot was filled with the same weight of soil and same number of plants (six plants) was transferred to reduce experimental error. All the pots were subjected to a short-day culture at 22° C. After two weeks, watering was stopped for drought treatment. A solution containing 0.05% Tween-20 and 5 μM 0224/0706/0715/0428 or 0.05% Tween-20 and 0.05% DMSO (control) was sprayed onto the leaf surface once per week with a spray amount of 2 ml solution/pot. The position of the flowerpot was changed every day during the process of drought to reduce the error caused by environmental factors. During the whole drought period, the solution was sprayed twice in total and photos were recorded after four weeks.
Arabidopsis thaliana Col-0 ecotype that had been growing in the soil for two weeks was stopped watering, the leaf was sprayed with a solution containing 5 μM compound 0224/0706/0715 or 0.05% DMSO (control) once every week during the drought, with a spray amount of 2 ml solution/pot, twice in total and a 0.05% (v/v) surfactant Tween-20 was added to the solution to enhance the penetrating effect of the spray agent on the leaf epidermis. […] The same method was performed for drought treatment and (+)-ABA or 0428-treated Arabidopsis was photographed two weeks after the drought.

## CCCN1C(=O)OC(C)c2cc(NS(=O)(=O)Cc3c(F)c(F)c(C)c(F)c3F)ccc21 (centres unmarked) [Compound 0224]
[1]
  inhibition of HAB1 protein phosphatase activity by promoting binding between PYL2 receptor and HAB1: inhibiting the activity of protein phosphatase HAB1; also recorded: inhibiting the dephosphorylation effect of HAB1 on SnRK2.6 phosphorylated polypeptide
[2]
  EC50 value with PYL1 receptor-HAB1 complex as fraction of that of ABA: ⅛
[3]
  EC50 value with PYL7 receptor-HAB1 complex as fraction of that of ABA: 1/10
[4]
  survival/growth after drought: still grows normally; also recorded: still survived

## Cc1c(F)c(F)c(CS(=O)(=O)Nc2ccc3c(c2)C(C)OC(=O)N3CCCF)c(F)c1F (centres unmarked) [Compound 0715]
[1]
  inhibition of HAB1 protein phosphatase activity by promoting binding between PYL2 receptor and HAB1: inhibiting the activity of protein phosphatase HAB1; also recorded: inhibiting the dephosphorylation effect of HAB1 on SnRK2.6 phosphorylated polypeptide
[4]
  survival/growth after drought: still grows normally; also recorded: still survived

## CC1=CC(=O)CC(C)(C)[C@@]1(O)/C=C/C(C)=C\C(=O)O [ABA, Abscisic Acid, reference compound]
[4]
  growth after drought: had no difference from that of plants in the DMSO-sprayed control group

## CCCN1C(=O)OC(C)(C)c2cc(NS(=O)(=O)Cc3c(F)c(F)c(C)c(F)c3F)ccc21 [Compound 0304]
[1]
  inhibition of HAB1 protein phosphatase activity by promoting binding between PYL2 receptor and HAB1: inhibiting the activity of protein phosphatase HAB1; also recorded: inhibiting the dephosphorylation effect of HAB1 on SnRK2.6 phosphorylated polypeptide
[2]
  EC50 value with PYL1 receptor-HAB1 complex as fraction of that of ABA: 1/7
[3]
  EC50 value with PYL7 receptor-HAB1 complex as fraction of that of ABA: 1/10

## CCN1C(=O)OC(C)c2cc(NS(=O)(=O)Cc3c(F)c(F)c(C)c(F)c3F)ccc21 (centres unmarked) [Compound 0706]
[1]
  inhibition of HAB1 protein phosphatase activity by promoting binding between PYL2 receptor and HAB1: inhibiting the activity of protein phosphatase HAB1; also recorded: inhibiting the dephosphorylation effect of HAB1 on SnRK2.6 phosphorylated polypeptide
[4]
  survival/growth after drought: still grows normally; also recorded: still survived

## CCCN1C(=O)OCc2cc(NS(=O)(=O)Cc3c(F)c(F)c(C)c(F)c3F)ccc21 [Compound 0428]
[1]
  inhibition of HAB1 protein phosphatase activity by promoting binding between PYL2 receptor and HAB1: inhibiting the activity of protein phosphatase HAB1; also recorded: inhibiting the dephosphorylation effect of HAB1 on SnRK2.6 phosphorylated polypeptide
[4]
  growth after drought: exhibits a better growth condition than that in the control group and that sprayed with ABA; also recorded: significantly better than that of plants in DMSO-sprayed control group and plants sprayed with 5 μM (+)-ABA
